Values quoted from earlier work, collected in patent US20060062074A1, “Method for intracellular modifications within living cells using pulsed electric fields” (priority 2001, published 2006).

Tested on: a variety of cell lines
Details: 0.0075% Triton X-100; positive control; literature (Borner et al. 1994)

Triton X-100
induction of apoptosis: induce apoptosis
